In patent US12097182B2, “Compounds and methods for treatment of inflammatory bowel disease with extra-intestinal manifestations” (Arena Pharmaceuticals, Inc., priority 2017, dated 2024):

Assays:
chronic plaque psoriasis = conditions: cited from earlier work
lymphocyte = experiment: Single and multiple ascending dose studies in healthy subjects; format: in vivo
[1] = tested on: experimental autoimmune encephalomyelitis (EAE); conditions: up to day 25, when dosing was discontinued; cited from earlier work
[2] = tested on: collagen induced arthritis (CIA); conditions: cited from earlier work

Row | SMILES | severity of chronic plaque psoriasis (chronic plaque psoriasis; chronic oral administration, phase 2) | associated adverse events (chronic plaque psoriasis; phase 2 psoriasis study) | lymphocyte lowering in healthy subjects (lymphocyte) | EAE disease onset and severity, prophylactic administration [1] | ankle diameters in CIA ([2]; prophylactic daily oral dose, day 17, similar to fingolimod or methotrexate) | histological parameters in knees and ankles of CIA rats ([2]; rat, in vivo)
1 | CCC/N=C1\S/C(=C\c2ccc(OC[C@H](O)CO)c(Cl)c2)C(=O)N1c1ccccc1C [ponesimod] | reduce the severity of chronic plaque psoriasis | dyspnea, elevated liver enzymes, bradycardia, headache and dizziness | – | – | – | –
2 | O=C(O)C[C@H]1CCc2c1[nH]c1ccc(OCc3ccc(C4CCCC4)c(C(F)(F)F)c3)cc21 [Compound 1, (R)-2-(7-(4-cyclopentyl-3-(trifluoromethyl)benzyloxy)-1,2,3,4-tetrahydrocyclopenta[b]indol-3-yl)acetic acid] | – | – | demonstrated the lymphocyte lowering capabilities | prevented the onset and severity of disease relative to vehicle | significant reduction in ankle diameters | Improvement in histological parameters
